Measurements published in patent US20100317688A1, “2-HETEROAROYLIMIDAZOL[1,2-a]PYRIDINE DERIVATIVES, PREPARATION AND THERAPEUTIC USE THEREOF” (SANOFI-AVENTIS, priority 2008, published 2010).

Target: T1, murine Nurr1 receptor (Mus musculus, UniProt Q06219)
T1 construct: a cell line (N2A) endogenously expressing the murine Nurr1 receptor; host or cells: Neuro-2A (N2A) mouse neuroblastoma cells stably transfected with 8NBRE-luciferase
Assay: In vitro activity on N2A cells (8NBRE-luciferase reporter)
Type: cell-based
Details: N2A cell line endogenously expressing Nurr1, stably transfected with NBRE-luciferase; 24 hours incubation
Method: Evaluation of the In Vitro Activity on N2A Cells
The activity of the compounds according to the invention was evaluated on a cell line (N2A) endogenously expressing the murine Nurr1 receptor and stably transfected with the NOT binding response element (NBRE) coupled to the luciferase reporter gene. The EC50 values are between 0.01 and 1000 nM. The tests were performed according to the procedure described hereinbelow.
The cell line Neuro-2A is obtained from a standard commercial source (ATCC). The clone Neuro-2A was obtained from a spontaneous tumour originating from a strain of albino mice A by R. J Klebe et al. This line Neuro-2A is then stably transfected with 8NBRE-luciferase. The N2A-8NBRE cells are cultured to the point of confluence in 75 cm^2 culture flasks containing DMEM supplemented with 10% foetal calf serum, 4.5 g/L of glucose and 0.4 mg/ml of geneticin. After culturing for one week, the cells are recovered with 0.25% trypsin for 30 seconds and then resuspended in DMEM without phenol red, containing 4.5 g/L of glucose and 10% Hyclone defatted serum, and placed in white, transparent-based 96-well plates. The cells are deposited at a rate of 60 000 per well in 75 μL for 24 hours before adding the products. […] The plates are then measured in a microplate luminescence counter, after having been sealed with an adhesive film. […]

T1 sequence (Q06219 whole entry): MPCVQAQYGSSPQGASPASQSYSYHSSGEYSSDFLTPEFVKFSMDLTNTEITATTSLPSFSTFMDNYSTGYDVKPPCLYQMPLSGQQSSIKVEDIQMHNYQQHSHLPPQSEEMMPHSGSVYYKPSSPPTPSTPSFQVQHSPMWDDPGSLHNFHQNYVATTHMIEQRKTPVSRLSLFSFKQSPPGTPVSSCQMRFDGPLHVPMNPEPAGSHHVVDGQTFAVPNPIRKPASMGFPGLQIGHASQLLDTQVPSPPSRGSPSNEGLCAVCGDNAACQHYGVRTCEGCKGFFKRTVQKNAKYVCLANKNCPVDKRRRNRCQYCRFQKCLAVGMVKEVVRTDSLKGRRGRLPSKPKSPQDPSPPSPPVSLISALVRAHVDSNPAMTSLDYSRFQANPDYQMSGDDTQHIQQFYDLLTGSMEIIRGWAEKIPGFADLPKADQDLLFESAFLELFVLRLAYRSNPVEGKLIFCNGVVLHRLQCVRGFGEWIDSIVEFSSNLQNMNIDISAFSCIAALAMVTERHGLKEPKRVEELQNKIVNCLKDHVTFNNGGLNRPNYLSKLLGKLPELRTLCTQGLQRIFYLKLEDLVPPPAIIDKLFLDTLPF

EC50: 4.7 nM
SMILES: O=C(c1cn2cc(Cl)ccc2n1)c1cccs1 [Example 4, (6-Chloroimidazo[1,2-a]pyridin-2-yl)(thien-2-yl)methanone]
